Reference: patent US6458781B1, “Substituted diarylalkyl amides as calcium channel antagonists” (priority 1998, dated 2002)
Where a name gives a salt, the structure may show the parent alone. Read-outs that look alike come from different tables or passages of the source.

Assays:
[1] = biological target: T1, L-type calcium channels in A10 cells (Rattus norvegicus, UniProt P22002); assay: L-type Ca2+ channel blocking potency in A10 cells (FLIPR); assay type: cell-based; conditions: read-out: FLPA10 IC50
T1 construct: which endogenously expresses L-type calcium channels; host or cells: A10 rat embryonic thoracic aorta smooth muscle cells
Method in brief: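 Rat A10 aortic smooth-muscle cells endogenously expressing L-type channels were loaded with Oregon Green BAPTA-1 and preincubated with compound for 5 min at 35 °C. Cells were then depolarized with 140 mM KCl buffer. Summed fluorescence above basal over 120 s gave % inhibition versus buffer-treated stimulated wells, with zero influx defined by 1.0×10^−6 M nitrendipine.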

[2] = biological target: T2, N-type calcium channels in IMR-32 cells (Homo sapiens, UniProt Q00975); assay: N-type Ca2+ channel blocking potency in IMR-32 cells using Indo-1; assay type: cell-based; conditions: for IC50: IMR-32 cells
T2 construct: host or cells: IMR-32 cells differentiated with dibutyryl cAMP and bromodeoxyuridine
Method in brief: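 Differentiated IMR-32 cells loaded with Indo-1 AM were preincubated with compound and 5 μM nitrendipine (L-type block) for 10 min at 30° C in HEPES/Tris pH 7.4 HBSS with 0.5% BSA. Cells were depolarized with KCl/CaCl2, and the 400/490 nm emission ratio rise over basal was measured. IC50 came from a four-parameter logistic fit.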

[3] = 5 μM nitrendipine present, read-out: IMR32 IC50
[4] = estimated from two data points, read-out: IMR32 IC50 (estimated IC50 values based on two data points)

T2 sequence (Q00975 whole entry): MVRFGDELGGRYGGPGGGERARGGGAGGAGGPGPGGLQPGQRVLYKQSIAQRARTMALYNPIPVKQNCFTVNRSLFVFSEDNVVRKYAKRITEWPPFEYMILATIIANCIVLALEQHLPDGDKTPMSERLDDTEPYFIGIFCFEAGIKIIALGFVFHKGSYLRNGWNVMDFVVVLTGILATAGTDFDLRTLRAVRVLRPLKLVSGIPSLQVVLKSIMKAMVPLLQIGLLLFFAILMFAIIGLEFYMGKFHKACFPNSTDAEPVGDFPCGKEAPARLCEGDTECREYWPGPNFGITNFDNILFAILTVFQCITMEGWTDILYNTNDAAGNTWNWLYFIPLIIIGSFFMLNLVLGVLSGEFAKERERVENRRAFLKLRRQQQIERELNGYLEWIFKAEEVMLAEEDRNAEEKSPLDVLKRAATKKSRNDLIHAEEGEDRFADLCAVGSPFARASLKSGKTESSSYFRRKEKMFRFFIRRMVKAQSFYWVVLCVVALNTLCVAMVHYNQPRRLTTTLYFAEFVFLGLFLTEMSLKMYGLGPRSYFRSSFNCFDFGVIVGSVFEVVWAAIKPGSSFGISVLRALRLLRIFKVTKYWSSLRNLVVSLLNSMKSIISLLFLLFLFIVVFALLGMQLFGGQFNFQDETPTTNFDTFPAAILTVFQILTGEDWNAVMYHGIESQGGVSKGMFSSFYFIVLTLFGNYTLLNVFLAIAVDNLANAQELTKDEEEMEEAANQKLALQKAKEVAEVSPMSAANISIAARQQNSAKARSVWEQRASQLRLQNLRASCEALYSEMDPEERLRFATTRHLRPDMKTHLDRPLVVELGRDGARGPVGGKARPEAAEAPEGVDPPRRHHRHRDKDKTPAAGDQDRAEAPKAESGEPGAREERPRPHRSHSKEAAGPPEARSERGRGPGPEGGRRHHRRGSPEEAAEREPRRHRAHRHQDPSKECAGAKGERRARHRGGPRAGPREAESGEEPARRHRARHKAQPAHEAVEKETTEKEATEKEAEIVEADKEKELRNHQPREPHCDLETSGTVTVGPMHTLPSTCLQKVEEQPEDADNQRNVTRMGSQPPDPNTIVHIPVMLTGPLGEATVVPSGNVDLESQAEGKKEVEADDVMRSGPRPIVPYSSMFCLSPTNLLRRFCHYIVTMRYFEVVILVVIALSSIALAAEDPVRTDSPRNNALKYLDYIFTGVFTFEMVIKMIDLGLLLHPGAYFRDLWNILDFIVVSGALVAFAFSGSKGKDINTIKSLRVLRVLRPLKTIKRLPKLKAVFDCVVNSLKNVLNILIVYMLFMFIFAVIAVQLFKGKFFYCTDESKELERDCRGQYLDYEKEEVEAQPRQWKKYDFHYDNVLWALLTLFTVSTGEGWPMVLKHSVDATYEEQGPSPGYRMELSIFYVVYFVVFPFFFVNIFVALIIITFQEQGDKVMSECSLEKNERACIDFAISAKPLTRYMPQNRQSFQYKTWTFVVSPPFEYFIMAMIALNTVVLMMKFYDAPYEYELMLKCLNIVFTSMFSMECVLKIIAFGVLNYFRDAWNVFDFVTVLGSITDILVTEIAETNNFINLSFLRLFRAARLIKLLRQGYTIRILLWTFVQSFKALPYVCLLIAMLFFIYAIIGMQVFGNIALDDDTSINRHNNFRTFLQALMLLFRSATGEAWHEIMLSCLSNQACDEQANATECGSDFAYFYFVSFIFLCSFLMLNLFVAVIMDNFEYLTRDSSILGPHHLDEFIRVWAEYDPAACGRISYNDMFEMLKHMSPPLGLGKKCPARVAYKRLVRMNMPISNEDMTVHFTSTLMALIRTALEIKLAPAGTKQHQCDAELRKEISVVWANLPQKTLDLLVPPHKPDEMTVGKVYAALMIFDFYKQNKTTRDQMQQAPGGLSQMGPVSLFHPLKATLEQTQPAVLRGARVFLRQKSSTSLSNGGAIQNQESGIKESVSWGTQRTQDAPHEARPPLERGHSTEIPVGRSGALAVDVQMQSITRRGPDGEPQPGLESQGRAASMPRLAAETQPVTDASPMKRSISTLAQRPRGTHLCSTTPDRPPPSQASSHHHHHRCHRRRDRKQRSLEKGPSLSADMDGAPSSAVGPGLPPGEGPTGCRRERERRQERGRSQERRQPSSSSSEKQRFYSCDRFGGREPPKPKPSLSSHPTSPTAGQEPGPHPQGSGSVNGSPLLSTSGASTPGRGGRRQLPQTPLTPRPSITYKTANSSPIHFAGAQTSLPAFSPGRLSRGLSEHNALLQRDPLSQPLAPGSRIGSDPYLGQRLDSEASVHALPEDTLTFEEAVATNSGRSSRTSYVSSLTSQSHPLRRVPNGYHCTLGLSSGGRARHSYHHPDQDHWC
T2 sequence (P54289 25-956 partner limits assumed): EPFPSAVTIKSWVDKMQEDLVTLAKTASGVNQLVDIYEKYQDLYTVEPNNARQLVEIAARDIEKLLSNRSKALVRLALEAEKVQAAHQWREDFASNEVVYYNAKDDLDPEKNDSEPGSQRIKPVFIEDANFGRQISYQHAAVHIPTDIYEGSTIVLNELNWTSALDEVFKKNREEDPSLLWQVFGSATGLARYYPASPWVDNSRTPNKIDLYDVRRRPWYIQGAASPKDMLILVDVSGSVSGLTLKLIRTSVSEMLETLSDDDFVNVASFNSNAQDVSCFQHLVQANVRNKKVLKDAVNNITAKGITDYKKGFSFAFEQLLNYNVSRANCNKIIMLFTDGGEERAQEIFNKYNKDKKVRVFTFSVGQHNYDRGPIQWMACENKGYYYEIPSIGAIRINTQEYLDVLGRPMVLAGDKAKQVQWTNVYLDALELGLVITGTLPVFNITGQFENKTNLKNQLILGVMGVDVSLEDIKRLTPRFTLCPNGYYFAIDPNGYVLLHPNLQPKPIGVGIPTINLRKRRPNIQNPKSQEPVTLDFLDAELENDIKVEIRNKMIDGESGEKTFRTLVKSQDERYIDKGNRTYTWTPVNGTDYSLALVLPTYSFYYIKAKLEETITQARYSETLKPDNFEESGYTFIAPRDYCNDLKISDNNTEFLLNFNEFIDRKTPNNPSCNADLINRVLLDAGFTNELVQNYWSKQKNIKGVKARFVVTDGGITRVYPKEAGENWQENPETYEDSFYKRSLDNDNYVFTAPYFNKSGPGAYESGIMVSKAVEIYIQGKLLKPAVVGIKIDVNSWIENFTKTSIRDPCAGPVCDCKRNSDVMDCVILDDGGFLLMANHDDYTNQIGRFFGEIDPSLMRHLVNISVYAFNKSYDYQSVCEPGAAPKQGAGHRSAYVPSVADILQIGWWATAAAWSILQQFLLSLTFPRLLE
T2 sequence (P54289 957-1103 partner limits assumed): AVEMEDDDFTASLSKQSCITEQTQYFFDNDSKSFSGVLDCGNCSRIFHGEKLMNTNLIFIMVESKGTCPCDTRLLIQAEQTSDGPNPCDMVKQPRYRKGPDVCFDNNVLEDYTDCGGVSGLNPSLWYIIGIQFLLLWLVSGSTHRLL
T2 sequence (Q02641 whole entry partner): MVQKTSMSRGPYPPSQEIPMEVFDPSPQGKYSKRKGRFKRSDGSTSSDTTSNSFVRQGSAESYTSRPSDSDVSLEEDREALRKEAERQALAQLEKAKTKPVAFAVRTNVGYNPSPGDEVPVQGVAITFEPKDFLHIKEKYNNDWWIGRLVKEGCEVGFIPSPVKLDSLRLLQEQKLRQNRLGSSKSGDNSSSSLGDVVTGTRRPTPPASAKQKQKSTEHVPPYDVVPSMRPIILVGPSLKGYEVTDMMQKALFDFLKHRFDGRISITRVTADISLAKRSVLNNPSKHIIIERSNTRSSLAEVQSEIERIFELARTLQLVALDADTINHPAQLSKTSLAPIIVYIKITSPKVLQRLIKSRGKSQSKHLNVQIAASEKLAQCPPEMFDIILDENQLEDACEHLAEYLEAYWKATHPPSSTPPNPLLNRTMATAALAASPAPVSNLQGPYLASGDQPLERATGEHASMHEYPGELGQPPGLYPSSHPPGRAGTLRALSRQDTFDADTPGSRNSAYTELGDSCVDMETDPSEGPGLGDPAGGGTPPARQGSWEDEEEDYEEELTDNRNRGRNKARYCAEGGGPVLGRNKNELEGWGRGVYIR

Row | SMILES | IC50 [1] [nM] | IC50 [2, 3] [nM] | inhibition at 1 µM ([2]; IMR-32, IMR-32 cells, at 1 μM, read-out: IMR32 % blockage at 1 μM) [%] | inhibition at 10 µM ([2]; IMR-32, IMR-32 cells, at 10 μM, read-out: IMR32 % blockage at 10 μM) [%] | IC50 [2, 4] [nM]
1 | CC(C)C[C@H](N)C(=O)NCCCC(c1ccc(F)cc1)c1ccc(F)cc1 [Example 7, (S)-2-Amino-4-methyl-pentanoic acid [4,4-bis-(4-fluoro-phenyl)-butyl]-amide monohydrochloride] | 280 | 2400 |  |  | 
2 | CC(C)C[C@H](NCC1CCCCC1)C(=O)NCCCC(c1ccc(F)cc1)c1ccc(F)cc1 [Example 8, (S)-2-(Cyclohexylmethyl-amino)-4-methyl-pentanoic acid [4,4-bis-(4-fluoro-phenyl)-butyl]-amide monohydrochloride] | 450 | 460 |  |  | 
3 | CC(C)=CCN[C@@H](CC(C)C)C(=O)NCCCC(c1ccc(F)cc1)c1ccc(F)cc1 [Example 9, (S)-4-Methyl-2-(3-methyl-but-2-enylamino)-pentanoic acid [4,4-bis-(4-fluoro-phenyl)-butyl]-amide monohydrochloride] | 390 | 280 |  |  | 
4 | CN[C@@H](CC(C)C)C(=O)NCCCC(c1ccc(F)cc1)c1ccc(F)cc1 [Example 12, (S)-4-Methyl-2-methylamino-pentanoic acid [4,4-bis-(4-fluoro-phenyl)-butyl]-amide monohydrochloride] | 600 | 1430 |  |  | 

Other lines, results leading:

Row | IC50 [1] [nM] | IC50 [2, 3] [nM] | inhibition at 1 µM ([2]; IMR-32, IMR-32 cells, at 1 μM, read-out: IMR32 % blockage at 1 μM) [%] | inhibition at 10 µM ([2]; IMR-32, IMR-32 cells, at 10 μM, read-out: IMR32 % blockage at 10 μM) [%] | IC50 [2, 4] [nM] | SMILES
5 | > 3000 | 840 |  |  |  | CC(C)C[C@@H](C(=O)NCCCC(c1ccc(F)cc1)c1ccc(F)cc1)N(C)Cc1ccc(C(C)(C)C)cc1.Cl [Example 14, (S)-2-[(4-tert-Butyl-benzyl)-methyl-amino]-4-methyl-pentanoic acid [4,4-bis-(4-fluoro-phenyl)-butyl]-amide monohydrochloride]
6 | 290 |  | 92 | 97 |  | CC(C)CCN(C)[C@@H](CC(C)C)C(=O)NCCCC(c1ccc(F)cc1)c1ccc(F)cc1 [Example 28, (S)-4-Methyl-2-[methyl-(3-methyl-butyl)-amino]-pentanoic acid [4,4-bis-(4-fluoro-phenyl)-butyl]-amide monohydrochloride]
7 | 1200 | 480 |  |  |  | CC(C)C[C@H](NC(=O)N1CCCCCC1)C(=O)N1CCN(C(c2ccc(F)cc2)c2ccc(F)cc2)CC1 [Example 31, (S)-Azepane-1-carboxylic acid (1-{4-[bis-(4-fluoro-phenyl)-methyl]-piperazine-1-carbonyl}-3-methyl-butyl)-amide]
8 | 360 | 850 |  |  |  | CC(C)[C@H](NC(=O)N1CCCCCC1)C(=O)N1CCN(C(c2ccc(F)cc2)c2ccc(F)cc2)CC1 [Example 33, (S)-Azepane-1-carboxylic acid (1-{4-[bis-(4-fluoro-phenyl)-methyl]-piperazine-1-carbonyl}-2-methyl-propyl)-amide]
9 | 270 |  |  |  | 500 | CC(C)C[C@@H](CN1CCN(C(c2ccc(F)cc2)c2ccc(F)cc2)CC1)NC(=O)N1CCCCCC1 [Example 36, (S)-Azepane-1-carboxylic acid (1-{4-[bis-(4-fluoro-phenyl)-methyl]-piperazin-1-ylmethyl}-3-methyl-butyl)-amide]
10 | 890 |  |  |  | 3500 | CC(C)C[C@@H](C(=O)N1CCN(C(c2ccc(F)cc2)c2ccc(F)cc2)CC1)N(C)C [Example 39, (S)-1-{4-[Bis-(4-fluoro-phenyl)-methyl]-piperazin-1-yl}-2-dimethylamino-4-methyl-pentan-1-one dihydrochloride]
